Laboratory results taken from patent publication US20250127790A1, “COMBINATION THERAPY USING VPS34 INHIBITORS” (Deciphera Pharmaceuticals, LLC, priority 2021, published 2025).

What was measured:
A-498 cells = assay: Western blot, STAT1 phosphorylation in A-498 cells; type: cell-based, human
Method: A-498 cells were seeded at 1.5×10^5 cells/well in 6-well plates and cultured overnight. Cells were treated with 10 μg/mL mouse monoclonal antibody to human interferon α/β receptor chain 2 (α-IFNAR2) (clone: MMHAR-2, #21385-1, PBL Assay Science) or 10 μg/mL mouse IgG2a isotype control antibody (clone: eBM2a, #16-4724-81, Thermo Fisher Scientific). After 1 h, DMSO or 2 μM Compound 1 was added and cells were incubated for another 24 h. […] A-498 cells were washed in PBS and lysed in RIPA buffer (50 mM Tris HCl pH=7.4, 150 mM NaCl, 1% Triton X-100, 0.5% Na-deoxycholate, 0.1% SDS) containing protease inhibitor cocktail (#11836170001, Roche), and phosphatase inhibitor (#11836170001, Roche) for 10 min at 4° C. After centrifugation at 15000 rpm for 10 min at 4° C., the supernatant was obtained, and protein concentration was quantified using BCA assay (#23225, Thermo Fisher). Equal amounts were mixed with 0.1 M DTT and LDS Sample Buffer (#84788, Thermo Fisher), heated for 5 min at 90° C. before loading onto 4-12% Bis-Tris gels. Proteins were transferred to nitrocellulose membranes. Membranes were blocked in 5% non-fat dry milk in TBS with 0.05% Tween (TBS-T) for 1 h at RT, washed in TBS-T, and probed with primary antibodies shaking overnight at 4° C. After washing in TBS-T, membranes were incubated with IRDye 800CW goat anti-rabbit or IRDye 680RD donkey anti-mouse IgG (H+L) (#926-32211 and #926-68072, respectively, LI-COR, 1:10,000 dilution) secondary antibody in Intercept blocking buffer (#927-60001, LI-COR) for 1 h at RT. After washing in TBS-T, membranes were imaged using the Odyssey CLx (LI-COR). Band intensities were quantified using Image Studio Lite software version 5.2.5 (LI-COR).

[1] = tested on: A-498 renal cell carcinoma cells; assay: Western blot, STING pathway proteins with siRNA knockdown, A-498 cells; type: cell-based; conditions: 24 h; for CGAS level / STING level / p-IRF3 level / p-STAT1 level / p-TKB1 level / p-IRF3 and p-STAT1 levels with siRNA knockdown of CGAS / p-TKB1 level with siRNA knockdown of CGAS / p-IRF3 and p-STAT1 levels with siRNA knockdown of STING / p-TBK1 level with siRNA knockdown of STING: 2 μM; for CGAS level / STING level / p-IRF3 level / p-STAT1 level / p-TKB1 level: vs DMSO alone; for p-IRF3 and p-STAT1 levels with siRNA knockdown of CGAS / p-TKB1 level with siRNA knockdown of CGAS: siCGAS; for p-IRF3 and p-STAT1 levels with siRNA knockdown of CGAS / p-TKB1 level with siRNA knockdown of CGAS / p-IRF3 and p-STAT1 levels with siRNA knockdown of STING / p-TBK1 level with siRNA knockdown of STING: vs compound alone; for p-IRF3 and p-STAT1 levels with siRNA knockdown of STING / p-TBK1 level with siRNA knockdown of STING: siSTING; for STING level with siRNA knockdown of TBK1 / CGAS level with siRNA knockdown of TBK1: siTBK1, 2 μM; for CGAS level with siRNA knockdown of TBK1: vs DMSO
Method: A-498 cells were transfected with scrambled siRNA control (siSCR) or siRNA targeting TBK1 (siTBK1), STING (siSTING) or CGAS (siCGAS). After 48 h cells were treated with DMSO or 2 μM of VPS34 inhibitor (Compound 1 or Compound 2) for 24 h. A-498 cells were washed in PBS and lysed in RIPA buffer (50 mM Tris HCl pH=7.4, 150 mM NaCl, 1% Triton X-100, 0.5% Na-deoxycholate, 0.1% SDS) containing protease inhibitor cocktail (#11836170001, Roche), and phosphatase inhibitor (#11836170001, Roche) for 10 min at 4° C. After centrifugation at 15000 rpm for 10 min at 4° C., the supernatant was obtained, and protein concentration was quantified using BCA assay (#23225, Thermo Fisher). Equal amounts were mixed with 0.1 M DTT and LDS Sample Buffer (#84788, Thermo Fisher), heated for 5 min at 90° C. before loading onto 4-12% Bis-Tris gels. Proteins were transferred to nitrocellulose membranes. Membranes were blocked in 5% non-fat dry milk in TBS with 0.05% Tween (TBS-T) for 1 h at RT, washed in TBS-T, and probed with primary antibodies shaking overnight at 4° C. After washing in TBS-T, membranes were incubated with IRDye 800CW goat anti-rabbit or IRDye 680RD donkey anti-mouse IgG (H+L) (#926-32211 and #926-68072, respectively, LI-COR, 1:10,000 dilution) secondary antibody in Intercept blocking buffer (#927-60001, LI-COR) for 1 h at RT. After washing in TBS-T, membranes were imaged using the Odyssey CLx (LI-COR). Band intensities were quantified using Image Studio Lite software version 5.2.5 (LI-COR).

[2] = tested on: A-498 renal cell carcinoma cells; assay: qRT-PCR with siRNA knockdown of STING pathway genes, A-498 cells; type: cell-based, Human; conditions: 24 h; for increase in mRNA expression of CCL5 / increase in mRNA expression of CXCL10 / increase in mRNA expression of IFNB1 / increase in mRNA expression of IRF7 / IFNB1, IRF7, CCL5 and CXCL10 expression with siRNA knockdown of CGAS / IFNB1, IRF7, CCL5 and CXCL10 expression with siRNA knockdown of STING: 2 μM; for IFNB1, IRF7, CCL5 and CXCL10 expression with siRNA knockdown of CGAS: siCGAS; for IFNB1, IRF7, CCL5 and CXCL10 expression with siRNA knockdown of CGAS / IFNB1, IRF7, CCL5 and CXCL10 expression with siRNA knockdown of STING / IFNB1, IRF7, CCL5 or CXCL10 expression with siRNA knockdown of TBK1: vs compound alone; for IFNB1, IRF7, CCL5 and CXCL10 expression with siRNA knockdown of STING: siSTING; for IFNB1, IRF7, CCL5 or CXCL10 expression with siRNA knockdown of TBK1: siTBK1, 2 μM
Method: A-498 cells were grown in Minimal Essential Medium containing 10% fetal bovine serum. Cells were then incubated for 2 days at 37 degrees Celsius, 5% CO2, and 95% humidity. A498 cells were transfected with scrambled siRNA control (siSCR) or siRNA targeting TBK1 (siTBK1), STING (siSTING) or CGAS (siCGAS). After 48 h cells were treated with DMSO or 2 μM of VPS34 inhibitor (Compound 1 or Compound 2) for 24 h. Cells were washed with PBS and RNA was isolated using the PureLink RNA kit (#12183018A, Thermo Fisher Scientific) according to the manufacturer's protocol. Genomic DNA was removed using DNA-binding columns (RNeasy plus kit, #74134, Qiagen) and/or DNase treatment (#12185010, Thermo Fisher Scientific). RNA was quantified using NanoDrop (Thermo Fisher Scientific) and 50 ng/μL RNA was used for cDNA synthesis with SuperScript IV VILO Master Mix (#11756050, Thermo Fisher Scientific). Quantitative RT-PCR (qRT-PCR) was run with diluted cDNA (1:25 or 1:12.5), PowerUp SYBR Green Master Mix (#A25741, Thermo Fisher Scientific), and 200 nM primers (see below) on a CFX Connect RT-PCR system (BioRad). Data was analyzed using the ΔΔCT method. Results are mean±SEM of three independent experiments.

B16-F10 tumors = assay: In vivo study of B16-F10 tumors; set-up: species or system C57BI/6 mice
Method: B16-F10 tumor-bearing C57BI/6 mice were treated with vehicle or 20 mg/kg Compound 1 p.o. (daily from day 7-16) in combination with PBS or 10 μg ADU-S100 i.t. (on days 9, 11, 13, and 15).

| SMILES | CGAS level [1] | STING level [1] | p-IRF3 level [1] | p-STAT1 level [1] | p-TKB1 level [1] | p-IRF3 and p-STAT1 levels with siRNA knockdown of CGAS [1] | p-TKB1 level with siRNA knockdown of CGAS [1] | p-IRF3 and p-STAT1 levels with siRNA knockdown of STING [1] | p-TBK1 level with siRNA knockdown of STING [1] | STING level with siRNA knockdown of TBK1 [1] | CGAS level with siRNA knockdown of TBK1 [1] | increase in mRNA expression of CCL5 [2] [fold] | increase in mRNA expression of CXCL10 [2] [fold] | increase in mRNA expression of IFNB1 [2] [fold] | increase in mRNA expression of IRF7 [2] [fold] | IFNB1, IRF7, CCL5 and CXCL10 expression with siRNA knockdown of CGAS [2] | IFNB1, IRF7, CCL5 and CXCL10 expression with siRNA knockdown of STING [2] | IFNB1, IRF7, CCL5 or CXCL10 expression with siRNA knockdown of TBK1 [2] | further results |
| --- | --- | --- | --- | --- | --- | --- | --- | --- | --- | --- | --- | --- | --- | --- | --- | --- | --- | --- | --- |
| C[C@@H]1COCCN1c1cc(N2CCCC[C@@H]2C(F)(F)F)[nH]c(=O)c1 [Compound 1, 4-((R)-3-methylmorpholino)-6-((R)-2-(trifluoromethyl)piperidin-1-yl)pyridin-2(1H)-one] | mild increase | increase | strong increases | strong increases | increase | complete loss | decrease | complete loss | decrease | increase | increase | > 4 | > 5 | > 5 | ~4 | complete ablation | complete ablation | moderate or negligible changes | phosphorylation of STAT1 (A-498 cells; 2 μM Compound 1, 24 h): increased; total levels of STAT1 (A-498 cells; 2 μM Compound 1, 24 h): did not alter; phosphorylation of STAT1 with addition of α-IFNAR2 (A-498 cells; 10 μg/mL α-IFNAR2 antibody 1 h before 2 μM Compound 1, 24 h): inhibited; sensitization of B16-F10 tumors to STING agonist treatment (tumor growth, survival) (B16-F10 tumors; C57BI/6 mice, 20 mg/kg Compound 1 p.o. daily day 7-16 with 10 μg ADU-S100 i.t. on days 9, 11, 13, 15): sensitized; mice survival (B16-F10 tumors; Renca and B16-F10 tumor-bearing mice, Compound 1 with STING agonist treatment): significantly improved |
| C[C@@H]1COCCN1c1cc(=O)n2c(n1)N(Cc1cncc(Cl)c1)[C@H](C(F)(F)F)CC2 [Compound 2, (S)-9-((5-chloropyridin-3-yl)methyl)-2-((R)-3-methylmorpholino)-8-(trifluoromethyl)-6,7,8,9-tetrahydro-4H-pyrimido[1,2-a]pyrimidin-4-one] | mild increase | increase | strong increases | strong increases | increase | complete loss | decrease | complete loss | decrease | increase | increase | ~8 | ~10 | > 10 | ~7 | complete ablation | complete ablation | moderate or negligible changes | – |
